We go through two compounds from ChEMBL document CHEMBL6127082, “Genome-Led Discovery of the Antibacterial Cyclic Lipopeptide Kutzneridine A and Its Silent Biosynthetic Gene Cluster from Kutzneria Species” (2024).

In brackets after ≈: the same amount, converted by molar mass. Activity calls are given as the source filed them. No cut-off for these calls is given here.

Test [1] deals with Staphylococcus aureus. Kind of test: Antibacterial activity against methicillin-resistant Staphylococcus aureus assessed as inhibition of bacterial growth. It is filed as functional.
In a further test the test system is Acinetobacter baumannii. Briefly: Antibacterial activity against Acinetobacter baumannii ATCC19606 assessed as inhibition of bacterial growth. It is filed as functional, organism-based.
The subject of the next test is Aspergillus fumigatus. Kind of test: Antifungal activity against Aspergillus fumigatus ATCC46645 assessed as inhibition of […] growth. It is filed as functional, organism-based.
The test system of test [2] is Enterococcus faecium. Kind of test: Antibacterial activity against vancomycin A-resistant Enterococcus faecium assessed as inhibition of bacterial growth. It is filed as functional.
The subject of test [3] is Enterococcus faecium. Briefly: Antibacterial activity against vancomycin B-resistant Enterococcus faecium assessed as inhibition of bacterial growth. It is filed as functional.
Test [4] concerns Staphylococcus aureus. Kind of test: Antibacterial activity against methicillin-resistant Staphylococcus aureus MB5395 assessed as inhibition of bacterial growth. It counts as functional.

As for `CCCCC/C=C/C=C/C(=O)NC[C@@H]1NC(=O)CNC(=O)[C@@H](N)CNC(=O)[C@@H](Cc2ccc(OC)cc2)NC1=O`, in the test on Staphylococcus aureus [1], the MIC95 turned out to be 16 µg/mL (≈ 28.7 µM).
On to `CCCCC/C=C/C=C/C(=O)NC[C@@H]1NC(=O)CN2C(=O)[C@H](CNC(=O)[C@@H](Cc3ccc(OC)cc3)NC1=O)NC2(C)C`, for which the outcome with Acinetobacter baumannii and with Aspergillus fumigatus was inactive. In addition, the MIC95 was determined as 16 µg/mL (≈ 26.8 µM) in the test with Staphylococcus aureus [1], 16 µg/mL (≈ 26.8 µM) in the test with Enterococcus faecium [2], 8 µg/mL (≈ 13.4 µM) with Enterococcus faecium [3] and 4 µg/mL (≈ 6.7 µM) with Staphylococcus aureus [4].
